From patent US20150105252A1, “SUBSTITUTED PYRAZOLES AS HERBICIDES” (E I DU PONT DE NEMOURS AND COMPANY, priority 2013, published 2015)

Key:
corn = test: Test A postemergence; assay type: in vivo, Zea mays
Summary of the method: (§1)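 Visual injury ratings, 0 = no effect to 100 = complete control, taken about 10 days after treatment against untreated controls. Test chemicals, in a non-phytotoxic surfactant-containing solvent, were sprayed onto soil preemergence or onto one- to two-leaf plants (2–10 cm) postemergence, in loam–sand soil under greenhouse conditions.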

velvetleaf = test: Test A postemergence; assay type: in vivo, Abutilon theophrasti
Summary of the method: as §1

nutsedge, yellow = test: Test C postemergence; assay type: in vivo, Cyperus esculentus; settings: for Plant response rating (scale of 0 to 100 where 0 is no effect and 100 is complete control), Nutsedge, Yellow: Postemergence, 31 g ai/ha, visually evaluated after 13 to 15 days; for Nutsedge, Yellow plant response rating / Plant response rating, Nutsedge, Yellow: postemergence; for Nutsedge, Yellow plant response rating: 62 g ai/ha, scale 0 to 100
Description: Seeds of plant species selected from blackgrass (Alopecurus myosuroides), ryegrass, Italian (Italian ryegrass, Lolium multiflorum), wheat (winter wheat, Triticum aestivum), galium (catchweed bedstraw, Galium aparine), corn (Zea mays), crabgrass, large (large crabgrass, Digitaria sanguinalis), foxtail, giant (giant foxtail, Setaria faberii), johnsongrass (Sorghum halepense), lambsquarters (Chenopodium album), morningglory (Ipomoea coccinea), nutsedge, yellow (yellow nutsedge, Cyperus esculentus), pigweed (redroot pigweed, Amaranthus retroflexus), ragweed (common ragweed, Ambrosia elation), soybean (Glycine max), barnyardgrass (Echinochloa crus-galli), oilseed rape (Brassica napus), waterhemp (common waterhemp, Amaranthus rudis), oat, wild (wild oat, Avena fatua), kochia (Kochia scoparia), Surinam grass (Brachiaria decumbens), foxtail, green (green foxtail, Setaria viridis), goosegrass (Eleusine indica), bromegrass, downy (downy bromegrass, Bromus tectorum), nightshade (eastern black nightshade, Solanum ptycanthum), cocklebur (common cocklebur, Xanthium strumarium), cupgrass, woolly (woolly cupgrass, Eriochloa villosa), bermudagrass (Cynodon dactylon), sunflower, (common oilseed sunflower, Helianthus annuus), Russian thistle (Salsola kali), and velvetleaf (Abutilon theophrasti) were planted into a blend of loam soil and sand and treated preemergence with test chemicals formulated in a non-phytotoxic solvent mixture which included a surfactant.
At the same time, plants selected from these crop and weed species and also chickweed (common chickweed, Stellaria media), canarygrass (littleseed canarygrass, Phalaris minor), and deadnettle (henbit deadnettle, Lamium amplexicaule), were planted in pots containing Redi-Earth® planting medium (Scotts Company, 14111 Scottslawn Road, Marysville, Ohio 43041) comprising spaghnum peat moss, vermiculite, wetting agent and starter nutrients and treated with postemergence applications of test chemicals formulated in the same manner. Plants ranged in height from 2 to 18 cm (1- to 4-leaf stage) for postemergence treatments. Treated plants and controls were maintained in a greenhouse for 13 to 15 days, after which time all species were compared to controls and visually evaluated. Plant response ratings, summarized in Table C, are based on a scale of 0 to 100 where 0 is no effect and 100 is complete control. A dash (-) response means no test result.

barnyardgrass = test: Test B flood; assay type: in vivo, Echinochloa crus-galli; settings: 250 g ai/ha, visual rating on 0 to 100 scale (0 no effect, 100 complete control), 13 to 15 days
Summary of the method: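 Plants were grown to the 2-leaf stage and pots flooded to 3 cm above soil. Compounds were applied directly into the paddy water, with depth kept for the test. After 13–15 days in greenhouse, response was rated visually against controls on a 0 (no effect) to 100 (complete control) scale.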

[1] = Postemergence, 125 g ai/ha, 0 to 100 scale, 0 no effect, 100 complete control
[2] = Postemergence, 500 g ai/ha, 0 to 100 scale (0 no effect, 100 complete control)
[3] = 250 g ai/ha, scale 0 to 100 (0 no effect, 100 complete control)
[4] = 125 g ai/ha, scale 0 to 100, 0 no effect, 100 complete control
[5] = Postemergence, 500 g ai/ha, visual rating after approx. 10 days, 0 to 100 scale (0 no effect, 100 complete control)
[6] = postemergence, 125 g ai/ha, about 10 days, visual rating on 0 to 100 scale (0 no effect, 100 complete control)

Compound	Corn plant response rating (corn; [1])	Corn plant response rating (corn; [2])	Velvetleaf plant response rating (velvetleaf; [1])	Velvetleaf plant response rating (velvetleaf; [2])	Plant response rating (scale of 0 to 100 where 0 is no effect and 100 is complete control), Nutsedge, Yellow (nutsedge, yellow)	Nutsedge, Yellow plant response rating (nutsedge, yellow)	Plant response rating, Nutsedge, Yellow (nutsedge, yellow; [3])	Plant response rating, Nutsedge, Yellow (nutsedge, yellow; [4])	Plant response rating, Barnyardgrass (barnyardgrass)	Corn plant response rating (corn; [5])	Corn plant response rating (corn; [6])	Velvetleaf plant response rating (velvetleaf; [5])	Velvetleaf plant response rating (velvetleaf; [6])
CCc1cc(C(=O)NCC(F)(F)F)nn1Cc1ccnc(SC(F)(F)F)c1 [Compound 214]	40	90	80	100	0	10	5	5	50	–	–	–	–
CCc1cc(-c2ccc(C(F)(F)F)cc2)nn1Cc1ccnc(C(F)(F)F)c1 [Compound 110]	–	–	–	–	5	10	10	10	30	90	80	100	90
CCc1cc(C(=O)NOC(C)C)nn1Cc1ccnc(OC(F)F)c1 [Compound 126]	–	90	–	–	5	5	15	5	40	–	90	–	–
CCOc1cc(C(=O)NCC(F)(F)F)nn1Cc1cc(C(F)(F)F)nn1C [Compound 140]	–	80	–	80	–	–	–	–	55	–	50	–	50
CCc1cc(C(=O)NCC(F)(F)F)nn1Cc1ccnc(Br)c1 [Compound 224]	60	90	60	100	0	0	5	5	20	–	–	–	–
CCc1cc(C(=O)NC2CC2)nn1Cc1ccnc(Br)c1 [Compound 220]	40	90	70	80	0	0	10	40	0	–	–	–	–
